Experimental data: patent US20190358264A1, “METHODS OF TREATING DISEASES ASSOCIATED WITH ILC2 CELLS” (Limm Therapeutics, SA, priority 2016, published 2019)

What was measured:
[1] = system: ILC2s; assay: In vitro activation of purified ILC2s, type 2 cytokine protein by intracellular staining; type: cell-based, mouse; conditions: purified ILC2s, Nmur1 competent vs deficient; NMUR1-dependent
Procedure: FIGS. 10a-10d: FIG. 10a, Ki67 expression in intestinal ILC2s after an overnight in vitro stimulation with NmU23 alone (100 ng/mL, Phoenix Pharmaceutical) or NmU23 together with the survival cytokines Interleukin (IL)-2 and/or IL-7 (10 ng/mL). FIG. 10b, Ki67 expression in intestine ILC2 after in vivo administration of NmU23 (4 g/day during 2 days). n=5. FIG. 10c, ILC2-derived type 2 cytokines (IL-5, IL-13 and Amphiregulin (Areg)) in sorted intestine ILC2 after an overnight stimulation with NmU23, mouse recombinant IL-25 or IL-33 (R&D) (10, 50 and 100 ng/mL). Negative control: unstimulated ILC2, Positive control: ILC2 activated with phorbol 12-myristate 13-acetate (PMA, 50 ng/ml) plus ionomycin (500 ng/ml). n=3. FIG. 10d, Dot plots representative of the cytokine production with increasing dose of NmU23, rIL-25 and rIL-33. *P<0.05; **P<0.01; ***P<0.001; ****P<0.0001; ns not significant.
(§1) For in vitro experiments, purified lung and small intestine lamina propria ILC2s were FBS starved for 2 hours prior to stimulation and cultured in complete RPMI (supplemented with 10% foetal bovine serum (FBS), 1% hepes, sodium pyruvate, glutamine, streptomycin and penicillin) at 37° C. For mRNA analysis, ILC2s were stimulated overnight with recombinant mouse Neuromedin U 23 peptide (NmU23, 100 ng/mL; Phoenix pharmaceuticals). Both NmU23-stimulated and control ILC2s were cultured in the presence of IL-2 and IL-7 (10 ng/mL; Peprotech). ILC2s were lysed using RLT buffer (Qiagen). For cytokine protein analysis, ILC2s were incubated exclusively with brefeldin A (eBioscience) for 12 hours prior to intracellular staining. For in vivo experiments, B6 mice were injected intraperitoneal with NmU23 peptide (2 g/day) during Nippostrongylus brasiliensis infection or with a single dose of NmU23 (20 μg) and analyzed after 8 hours. Control mice were treated with PBS alone.
(§2) Intracellular staining was performed using IC fixation/permeabilization kit (eBioscience). Flow cytometry analysis and cell sorting were performed using BD LSRFORTESSA and BD FACSAria flow cytometers (BD Biosciences). […]

[2] = system: ILC2s; assay: In vivo administration of NmU23, ILC2- and T cell-derived type 2 cytokines; parameters: species or system mouse; conditions: single dose NmU23 20 μg intraperitoneal, analyzed after 8 hours, vs PBS
Procedure: as §1
as §2, with “Biosciences). Data analysis was done using FlowJo software (Tristar). Sorted populations were >95% pure.” for “Biosciences).”

## recombinant mouse Neuromedin U 23 peptide (FKAEYQSPSVGQSKGYFLFRPRN; listed as Mus musculus) [NmU23, NMUR1 agonist neuropeptide, Phoenix pharmaceuticals]
[1]
  expression of the type 2 cytokine proteins IL-5 and IL-13 in ILC2s: potent expression
[2]
  T helper cell-derived type 2 cytokines after in vivo administration: unperturbed
  type 2 cytokine production from ILC2s after in vivo administration: immediate and selective type 2 cytokine production
